Laboratory results: paper PMC13485499, “Neoliensinine promotes lysosomal cell death in T cell malignancies via a novel STING-TUBA1B pathway” (Genes & Diseases, 2025)

Molecular target: T1, Stimulator of interferon genes (STING) (Homo sapiens, UniProt Q86WV6)
T1 construct: gene STING1
Assay: DARTS in Jurkat and Hut102 cell lysates ([…]); weaker than NeoL
Type: cell-based

T1 sequence (Q86WV6 whole entry): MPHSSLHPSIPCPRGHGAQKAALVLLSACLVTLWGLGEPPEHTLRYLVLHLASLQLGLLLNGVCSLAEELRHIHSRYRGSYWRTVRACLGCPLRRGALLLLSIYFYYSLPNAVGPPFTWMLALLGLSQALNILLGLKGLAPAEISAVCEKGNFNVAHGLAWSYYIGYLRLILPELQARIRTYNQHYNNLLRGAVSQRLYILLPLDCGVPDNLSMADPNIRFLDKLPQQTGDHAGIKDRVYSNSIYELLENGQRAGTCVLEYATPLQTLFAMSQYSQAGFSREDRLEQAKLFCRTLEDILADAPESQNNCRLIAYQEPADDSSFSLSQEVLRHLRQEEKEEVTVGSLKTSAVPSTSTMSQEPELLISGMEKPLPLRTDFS

COc1ccc(C[C@@H]2c3cc(Oc4cc(C[C@@H]5c6cc(O)c(OC)cc6CCN5C)ccc4O)c(OC)cc3CCN2C)cc1 [IsoL, isoliensinine]
DARTS in Jurkat and Hut102 cell lysates (80 μmol/L); weaker than NeoL: incubation with NeoL and IsoL led to increased STING in the Jurkat and Hut102 cell lysates
